Data taken from patent publication EP0028063A1, “Phenol derivatives, processes for their preparation and pharmaceutical compositions containing them” (GLAXO GROUP LIMITED, priority 1979, dated 1981).

Columns and labels:
SRS-A = assay: Antagonism of the action of SRS-A on guinea-pig isolated ileum (method of Coleman et al.; pA2 by Arunlakshana and Schild); assay type: cell-based; conditions: Cavia porcellus, SRS-A induced contraction, compounds tested at concentrations of 10^-6 M
Excerpt: The compounds according to the invention are potent antagonists of the action of slow reacting substance of anaphylaxis (SRS-A) as shown by their ability to inhibit the SRS-A induced contraction of guinea pig ileum (Coleman et al, Br. J. Pharmacol., 1979, 66, 83P). SRS-A is a naturally occurring substance which causes contraction of smooth muscle, especially bronchial muscle, and increases vascular permeability. The substance is not normally present in human tissue but is synthesised and released from certain cells during an allergic reaction. The compounds according to the invention are thus indicated for use in the treatment of disorders in which SRS-A may be a factor, for example, in obstructive airways diseases such as asthma, in hay fever and in skin afflictions.
The ability of the compounds to act as antagonists of the action of SRS-A was shown using guinea-pig isolated ileum according to the methods of Coleman et al, Br. J. Pharmacol., (1979), 66, 83P. Compounds were tested at concentrations of 10^-6 M and pA2 values were determined using the standard procedures of Arunlalkshana and Schild, Br. J. Pharmac.

dogs = assay: Oral tolerability in dogs; assay type: in vivo; conditions: given orally to dogs at doses of up to 10 mg/kg
Excerpt: The compounds are in general non-toxic at therapeutically useful doses.

## CCCc1c(OCCCOc2cccc(CCC(=O)O)c2)ccc(C(C)=O)c1O [Example 5, 3-[3-(4-Acetyl-3-hydroxy-2-propylphenoxy)propoxy]bepzene propanoic acid]
SRS-A
  Kb: 50.1 nM
dogs
  adverse effects: no adverse effects

## CCCc1c(OCCCOc2ccc(OCC(=O)O)cc2)ccc(C(C)=O)c1O [Example 1g]
SRS-A
  Kb: 100 nM

## CCCc1c(OCCCOc2ccc(C(=O)O)c(O)c2CCC)ccc(C(C)=O)c1O [Example 2c, 4-(3-(4-Aceltyl-3-hydroxy-2-propylphenoxy)propoxy] -2-hydroxy-3-propylbenzoic acid]
SRS-A
  Kb: 39.8 nM

## CCCc1c(OCCCOc2cccc(C=CC(=O)O)c2)ccc(C(C)=O)c1O [Example 2a, 3-[3-[3-(4-Acetyl-3-hydroxy-2-propylphenoxy)propoxy]-phenyl]-2-propenoic acid]
SRS-A
  Kb: 39.8 nM
dogs
  adverse effects: no adverse effects

## CCCc1c(OCCCCCOc2cccc(C=CC(=O)O)c2)ccc(C(C)=O)c1O [Example 4b, 3-[3-[5-(4-Acetyl-3-hydroxy-2-propylphenoxy)pentyloxy]phenyl]-2-propenoic acid]
SRS-A
  Kb: 50.1 nM

## CCCc1c(OCCCOc2ccc(C(=O)O)c(O)c2)ccc(C(C)=O)c1O [Example 8, 4-[3-(4-Acetyl-3-hydroxy-2-propylphcnoxy)propoxy]-2-hydroxybenzoic acid]
SRS-A
  Kb: 15.8 nM
dogs
  adverse effects: no adverse effects

## CCCc1c(OCCCOc2cc(C=CC(=O)O)ccc2[N+](=O)[O-])ccc(C(C)=O)c1O [Example 9b, 3-[3-[3-[4-Acetyl-3-hydroxy-2-propylphenoxy]propoxy]-4-nitrophenyl]-2-propenoic acid]
SRS-A
  Kb: 31.6 nM

## CCCc1c(OCCCOc2cccc(-c3nn[nH]n3)c2)ccc(C(C)=O)c1O [Example 10b, 5-[3-[3-[4-Acetyl-3-hydroxy-2-propylphenoxy]propoxy]-phenyl]-lH-tetrazole]
SRS-A
  Kb: 79.4 nM
